In patent US20140171357A1, “VANCOMYCIN DERIVATIVES” (Seachald Pharmaceuticals, Inc., priority 2011, published 2014):
In brackets after ≈: the same amount, converted by molar mass.

What was measured:
[1] = test system: methicillin-susceptible S. aureus (MSSA, 22); assay: MIC broth microdilution, MSSA; details: MSSA (22)
[2] = test system: methicillin-resistant S. aureus (MRSA, 22); assay: MIC broth microdilution, MRSA; details: MRSA (22)
[3] = test system: vancomycin-intermediate S. aureus (VISA, 5); assay: MIC broth microdilution, VISA
[4] = test system: vancomycin-resistant S. aureus (VRSA, 6); assay: MIC broth microdilution, VRSA
[5] = test system: heterogeneous VISA (hVISA, 10); assay: MIC broth microdilution, hVISA
[6] = test system: S. pneumoniae (22); assay: MIC broth microdilution, S. pneumoniae; details: for MIC 50% / MIC 90%: S. pneumoniae (22), MHB + lysed horse blood
[7] = test system: Staphylococcus epidermidis (43 strains); assay: MIC broth microdilution, S. epidermidis; details: S. epidermidis (43)
[8] = test system: VanA vancomycin-resistant E. faecium (10); assay: MIC broth microdilution, VanA E. faecium; details: E. faecium, VanA (10)
[9] = test system: VanB vancomycin-resistant E. faecium (10); assay: MIC broth microdilution, VanB E. faecium; details: E. faecium, VanB (10)
[10] = test system: S. aureus ATCC 25923; assay: Neutropenic murine thigh infection model; details: for AUCc-t (AUC difference between control and treated animals): 24 h time kill
[11] = test system: VanA vancomycin-resistant E. faecalis (11); assay: MIC broth microdilution, VanA E. faecalis; details: E. faecalis, VanA (11)
[12] = test system: VanB vancomycin-resistant E. faecalis (12); assay: MIC broth microdilution, VanB E. faecalis; details: E. faecalis, VanB (12)
[13] = test system: Staphylococcus aureus (65 strains); assay: MIC broth microdilution, S. aureus all isolates; details: S. aureus (65), all resistance subsets
[14] = test system: β-hemolytic streptococci (23); assay: MIC broth microdilution, β-hemolytic streptococci; details: for MIC 50% / MIC 90%: β-hemolytic streptococci (23), MHB + lysed horse blood
[15] = test system: VanC enterococci (22); assay: MIC broth microdilution, vanC-carrying enterococci; details: VanC enterococci (22)
[16] = test system: vancomycin-susceptible E. faecium (21); assay: MIC broth microdilution, vancomycin-susceptible E. faecium; details: E. faecium, vancomycin-susceptible (21)
[17] = test system: vancomycin-susceptible E. faecalis (23); assay: MIC broth microdilution, vancomycin-susceptible E. faecalis; details: E. faecalis, vancomycin-susceptible (23)
[18] = 1 mg/kg single intraperitoneal dose
[19] = 4 mg/kg single intraperitoneal dose
[20] = 16 mg/kg single intraperitoneal dose

CCCCCCCCCCNCCNC1(C)CC(OC2C(Oc3c4cc5cc3Oc3ccc(cc3Cl)C(O)C3NC(=O)C(NC(=O)C5NC(=O)C(CC(N)=O)NC(=O)C(NC(=O)C(CC(C)C)NC)C(O)c5ccc(c(Cl)c5)O4)c4ccc(O)c(c4)-c4c(cc(O)c(CNCCOCCOCCN)c4O)C(C(=O)O)NC3=O)OC(CO)C(O)C2O)OC(C)C1O (centres unmarked) [Compound 3]
MIC 50% [1]: 0.03 µg/mL (≈ 0.0167 µM) | MIC 90% [1]: 0.06 µg/mL (≈ 0.0335 µM) | MIC 50% [2]: 0.03 µg/mL (≈ 0.0167 µM) | MIC 90% [2]: 0.06 µg/mL (≈ 0.0335 µM) | MIC 50% [3]: 0.12 µg/mL (≈ 0.0669 µM) | MIC 50% [4]: 1 µg/mL (≈ 0.558 µM) | MIC 50% [5]: 0.06 µg/mL (≈ 0.0335 µM) | MIC 90% [5]: 0.06 µg/mL (≈ 0.0335 µM) | fold more potent than linezolid ([6]; S. pneumoniae): 32 fold | MIC 50% [6]: 0.015 µg/mL | MIC 90% [6]: 0.03 µg/mL | MIC 50% [7]: 0.03 µg/mL (≈ 0.0167 µM) | MIC 90% [7]: 0.03 µg/mL (≈ 0.0167 µM) | MIC 50% [8]: 2 µg/mL (≈ 1.12 µM) | MIC 90% [8]: 4 µg/mL (≈ 2.23 µM) | MIC 50% [9]: 0.015 µg/mL (≈ 0.00837 µM) | MIC 90% [9]: 0.015 µg/mL (≈ 0.00837 µM) | Max Kill (maximum decrease from initial infection level) [10, 18]: −0.2 Log10 CFU/thigh | AUCc-t (AUC difference between control and treated animals) [10, 18]: 28.4 (Log10 CFU/thigh)/hr | Max Kill (maximum decrease from initial infection level) [10, 19]: −0.41 Log10 CFU/thigh | AUCc-t (AUC difference between control and treated animals) [10, 19]: 32.3 (Log10 CFU/thigh)/hr | Max Kill (maximum decrease from initial infection level) [10, 20]: −1.08 Log10 CFU/thigh | AUCc-t (AUC difference between control and treated animals) [10, 20]: 52.9 (Log10 CFU/thigh)/hr | organism reduction across doses ([10]; 1, 4 and 16 mg/kg intraperitoneal): organism reduction over the entire dose range | in vivo efficacy against S. aureus (in words) ([10]; neutropenic soft tissue infection model): bactericidal characteristics and prolonged in vivo activity | MIC 50% [11]: 4 µg/mL (≈ 2.23 µM) | MIC 90% [11]: 8 µg/mL (≈ 4.46 µM) | MIC 50% [12]: 0.06 µg/mL (≈ 0.0335 µM) | MIC 90% [12]: 0.12 µg/mL (≈ 0.0669 µM) | MIC 50% [13]: 0.03 µg/mL (≈ 0.0167 µM) | MIC 90% [13]: 0.12 µg/mL (≈ 0.0669 µM) | fold more potent than teicoplanin and daptomycin ([14]; β-hemolytic streptococci): two- to four | fold more potent than vancomycin ([14]; β-hemolytic streptococci): four- to eight | MIC 50% [14]: 0.03 µg/mL | MIC 90% [14]: 0.12 µg/mL | MIC 50% [15]: 0.06 µg/mL (≈ 0.0335 µM) | MIC 90% [15]: 0.12 µg/mL (≈ 0.0669 µM) | MIC 50% [16]: 0.015 µg/mL (≈ 0.00837 µM) | MIC 90% [16]: 0.03 µg/mL (≈ 0.0167 µM) | MIC 50% [17]: 0.06 µg/mL (≈ 0.0335 µM) | MIC 90% [17]: 0.06 µg/mL (≈ 0.0335 µM)

CNC(CC(C)C)C(=O)NC1C(=O)NC(CC(N)=O)C(=O)NC2C(=O)NC3C(=O)NC(C(=O)NC(C(=O)O)c4cc(O)c(CNCCOCCOCCN)c(O)c4-c4cc3ccc4O)C(O)c3ccc(c(Cl)c3)Oc3cc2cc(c3OC2OC(CO)C(O)C(O)C2OC2CC(C)(NCc3ccc(-c4ccc(Cl)cc4)cc3)C(O)C(C)O2)Oc2ccc(cc2Cl)C1O (centres unmarked) [Compound 11]
MIC 50% [1]: 0.12 µg/mL (≈ 0.0663 µM) | MIC 90% [1]: 0.12 µg/mL (≈ 0.0663 µM) | MIC 50% [2]: 0.12 µg/mL (≈ 0.0663 µM) | MIC 90% [2]: 0.12 µg/mL (≈ 0.0663 µM) | MIC 50% [3]: 0.25 µg/mL (≈ 0.138 µM) | MIC 50% [4]: 4 µg/mL (≈ 2.21 µM) | MIC 50% [5]: 0.12 µg/mL (≈ 0.0663 µM) | MIC 90% [5]: 0.12 µg/mL (≈ 0.0663 µM) | MIC 50% [6]: 0.06 µg/mL | MIC 90% [6]: 0.06 µg/mL | MIC 50% [7]: 0.06 µg/mL (≈ 0.0331 µM) | MIC 90% [7]: 0.06 µg/mL (≈ 0.0331 µM) | MIC 50% [8]: 2 µg/mL (≈ 1.1 µM) | MIC 90% [8]: 4 µg/mL (≈ 2.21 µM) | MIC 50% [9]: 0.06 µg/mL (≈ 0.0331 µM) | MIC 90% [9]: 0.12 µg/mL (≈ 0.0663 µM) | Max Kill (maximum decrease from initial infection level) [10, 18]: 0.59 Log10 CFU/thigh | AUCc-t (AUC difference between control and treated animals) [10, 18]: 12.9 (Log10 CFU/thigh)/hr | Max Kill (maximum decrease from initial infection level) [10, 19]: 0.46 Log10 CFU/thigh | AUCc-t (AUC difference between control and treated animals) [10, 19]: 10.8 (Log10 CFU/thigh)/hr | Max Kill (maximum decrease from initial infection level) [10, 20]: −0.39 Log10 CFU/thigh | AUCc-t (AUC difference between control and treated animals) [10, 20]: 34.7 (Log10 CFU/thigh)/hr | MIC 50% [11]: 4 µg/mL (≈ 2.21 µM) | MIC 90% [11]: 8 µg/mL (≈ 4.42 µM) | MIC 50% [12]: 0.25 µg/mL (≈ 0.138 µM) | MIC 90% [12]: 0.25 µg/mL (≈ 0.138 µM) | MIC 50% [13]: 0.12 µg/mL (≈ 0.0663 µM) | MIC 90% [13]: 0.5 µg/mL (≈ 0.276 µM) | MIC 50% [14]: 0.06 µg/mL | MIC 90% [14]: 0.12 µg/mL | MIC 50% [15]: 0.25 µg/mL (≈ 0.138 µM) | MIC 90% [15]: 0.5 µg/mL (≈ 0.276 µM) | MIC 50% [16]: 0.06 µg/mL (≈ 0.0331 µM) | MIC 90% [16]: 0.12 µg/mL (≈ 0.0663 µM) | MIC 50% [17]: 0.25 µg/mL (≈ 0.138 µM) | MIC 90% [17]: 0.25 µg/mL (≈ 0.138 µM)
